Experimental data reported in PubChem BioAssay AID1996.
Values after ≈ are worked out from the molar mass of the structure shown.

conditions: buffer; pH 7.4; 200.0 µM

Structure (SMILES)	solubility kinetic [µg/mL]
Cc1cccc(NC(=S)NC(=O)C2CC2)c1	> 35.1
CC1CCCC1/C(=N/O)c1ccccc1 (stereo not given)	16.9 (≈ 83.1 µM)
Cc1cc(NC(=O)CSc2nnc(-c3ccccc3F)n2N)no1	> 52.3
Cc1cc(C)c2nc(/N=C(\N)NC(=O)c3ccccc3)nc(C)c2c1	1.3 (≈ 3.9 µM)
Cc1c(C(=O)c2ccc(Br)cc2)c(=O)n(C)c(=O)n1C	50.1 (≈ 149 µM)
O=C(NCc1ccco1)c1cccc(Br)c1	39 (≈ 139 µM)
COc1ccc(S(N)(=O)=O)cc1C(=O)OCC(=O)N1CCCC(C)C1 (stereo not given)	> 55.6
COc1ccc(CC(=O)NCc2ccc3c(c2)cc(C)n3C)cc1OC	20.8 (≈ 59 µM)
N#Cc1cccc(C#N)c1Oc1ccc(N)cc1	> 35.3
O=C(NC1CC(=O)c2sccc21)c1ccc(Cl)cc1Cl (stereo not given)	> 48.9
O=C(COC(=O)[C@H](Cc1ccccc1)NC(=O)c1ccco1)Nc1ccccc1	> 58.9
CSc1nc2ccc(NC(=O)COc3ccccc3F)cc2s1	2.2 (≈ 6.31 µM)
O=C(O)C1CCCCC1C(=O)NCc1ccc(Cl)c(Cl)c1 (stereo not given)	35.6 (≈ 108 µM)
O=C(O)CCN=CC1=C(O)CC(c2ccccc2)CC1=O (stereo not given)	> 43.1
NC(=O)c1ccccc1OCC(=O)Nc1cccnc1Cl	> 45.9
CCCCc1ccc(NC(=O)Nc2cccnc2)cc1	4 (≈ 14.9 µM)
Cc1c(Cl)cccc1NC(=S)NC(=O)c1cncc(Br)c1	5.1 (≈ 13.3 µM)
Cc1ccc(Nc2ccncc2S(N)(=O)=O)cc1	33 (≈ 125 µM)
O=C(c1ccc(Cl)cc1[N+](=O)[O-])N1CCOCC1	40.2 (≈ 149 µM)
CCc1ccccc1NC(=O)C1CCCC1	29.7 (≈ 137 µM)
Cc1ccccc1NC1=NC2(CCCC2)N=C(N)N1	28.3 (≈ 110 µM)
Cc1ccsc1C(=O)OCC(=O)NC1CCCCC1C (stereo not given)	12 (≈ 40.6 µM)
CN1CCCC(OC(=O)c2ccccc2F)C1.Cl (stereo not given)	39.7
Cc1ccc2[nH]cc(S(=O)(=O)c3ccc(C(C)C)cc3)c(=O)c2c1	< 0.7

Structure (SMILES)	solubility kinetic [µg/mL]
CCOC(=O)/C(C#N)=C/Nc1ccsc1C(C)=O	3.5 (≈ 13.2 µM)
COc1cc(/C=N/c2oc(C)c(C)c2C#N)cc(Br)c1O	8 (≈ 22.9 µM)
CCN1C(=O)Nc2cccc3cccc1c23	4.9 (≈ 23.1 µM)
COC(=O)c1sc(N2CCCCC2)c(C#N)c1N	2.2 (≈ 8.29 µM)
Cc1ccc(S(=O)(=O)/N=C(/Nc2ccccc2C)c2ccccc2)cc1	39.8 (≈ 109 µM)
CN(C(=O)COC(=O)/C=C/c1cccs1)C1CCCCC1	17.7 (≈ 57.6 µM)
CC(=O)C1=C(O)C(=O)N(c2ccccn2)C1c1ccccc1[N+](=O)[O-] (stereo not given)	> 50.9
CCCCNC(=O)c1ccc(CS(=O)(=O)c2ccc(C)cc2)o1	> 50.3
COc1ccc(S(=O)(=O)N2CCc3ccccc32)cc1C(=O)NCCc1ccc(S(N)(=O)=O)cc1	3.7 (≈ 7.18 µM)
COc1ccccc1CC(=O)NC1CCCCCC1	37.6 (≈ 144 µM)
CN(C)S(=O)(=O)c1cc(NC(=O)COC(=O)CC2CC3CCC2C3)ccc1Cl (stereo not given)	13.7 (≈ 31.9 µM)
CCCN1C(=O)C(O)(c2c(C)[nH]c3ccccc23)c2ccccc21 (stereo not given)	26.3 (≈ 82.1 µM)
O=C(O)c1ccc(S(=O)(=O)Nc2ccc3c(c2)OCCO3)cc1	41.5 (≈ 124 µM)
O=C(O)C(Cc1c[nH]c2ccccc12)N1C(=O)c2ccccc2C1=O (stereo not given)	41.4 (≈ 124 µM)
Cc1cc(C(=O)N2CCN(c3ccc([N+](=O)[O-])cc3)CC2)c(C)o1	20.3 (≈ 61.6 µM)
O=C(Cn1cc([N+](=O)[O-])ccc1=O)Nc1ccc2c(c1)OCO2	15.8 (≈ 49.8 µM)
Cc1ccc(CC(=O)N2CCN(C)CC2)cc1	> 34.8
C=CCC(=O)N1CCCC(CCC(=O)NCc2ccccc2F)C1 (stereo not given)	> 49.9
O=C(CN1C(=O)c2ccccc2C1=O)NC1CCCCCC1	12.4 (≈ 41.3 µM)
Cc1cc(NC(=O)CS(=O)(=O)c2c[nH]c3ccccc23)no1	> 47.9
COc1ccc(CN(C)C(=S)Nc2ccc(Cl)cc2)cc1	13.5 (≈ 42.1 µM)
O=C(COc1ccccc1[N+](=O)[O-])NCC1COc2ccccc2O1 (stereo not given)	24.2 (≈ 70.3 µM)
CC(CN1CCN(C)CC1)OC(=O)c1ccc(F)cc1.Cl (stereo not given)	> 47.5
NC(=S)Nc1ccc(Cl)cc1Cl	32.9 (≈ 149 µM)

Structure (SMILES)	solubility kinetic [µg/mL]
O=C(CNC(=O)c1ccc(Cl)cc1Cl)OCCOc1ccccc1F	51.2 (≈ 133 µM)
On1c(-c2ccccc2)nc2ncccc21	> 31.7
COc1cc(OC)nc(Oc2cccc(C(F)(F)F)c2)n1	< 0.3
O=C(Nc1ccccc1Br)c1ccc2nccnc2c1	> 49.2
Cc1ccc(Nc2cc(=O)[nH]c(=O)[nH]2)cc1Cl	2 (≈ 7.95 µM)
O=C(COc1ccc(Cl)cc1Br)NC1CC1	> 45.7
O=C(Nc1cccc(C(F)(F)F)c1)Nc1ccon1	9.9 (≈ 36.5 µM)
Cc1nc2ccc(Nc3ccncc3)cc2s1	34.2 (≈ 142 µM)
Cc1ccc(NCC(=O)N/N=C/c2ccncc2)cc1	> 40.2
Cc1ccccc1NC(=O)C(C)N1C(=O)c2ccccc2C1=O (stereo not given)	> 46.3
Cc1cccc(/C(N)=N/OC(=O)c2cccc3ccccc23)c1	1.1 (≈ 3.61 µM)
OCc1nc2ccccc2n1Cc1c(F)cccc1Cl	14.4 (≈ 49.5 µM)
Cn1ccc(C(=O)N/N=C/c2ccncc2)n1	> 34.4
O=Cc1cccn1-c1ccc2ccccc2c1	15 (≈ 67.8 µM)
COc1cc(CNCCNC(=O)c2cccs2)cc(OC)c1OC	44.1 (≈ 126 µM)
COc1ccc(Nc2nc(C)cc(C)c2C(N)=O)cc1OC	43.8 (≈ 145 µM)
CC(NS(=O)(=O)c1cc(C(F)(F)F)ccc1Cl)C(=O)N(C)C1CCN(C)CC1 (stereo not given)	> 66.3
Cc1cc(C)cc(C(=O)NCC(=O)N2CCC(C(N)=O)CC2)c1	> 47.6
CC1(/[N+]([O-])=C/c2ccc(F)cc2)CCCCC1=O (stereo not given)	28.3 (≈ 114 µM)
O=C(NCCc1ccc(Cl)cc1)c1ccc2c(c1)OCO2	1.2 (≈ 3.95 µM)
Cl.c1ccc2c3c([nH]c2c1)CCNC3	> 31.3
CCn1cc(C(C)NC(=O)Nc2ccc3c(c2)OCO3)c(C)n1 (stereo not given)	> 47.5
COC(=O)c1ccc(Nc2c([N+](=O)[O-])ccc3nonc23)cc1	< 0.2
O=C1/C(=C/c2ccc(F)cc2)Oc2cc(OC(=O)N3CCOCC3)ccc21	< 0.8

Structure (SMILES)	solubility kinetic [µg/mL]
N#Cc1c(NCCO)ccc([N+](=O)[O-])c1NCCO	> 39.9
CCOC(=O)C1(Cc2cccc(Cl)c2)CCCN(CCO)C1 (stereo not given)	47.9 (≈ 147 µM)
Cc1ccc(NC(=O)/C=C/C(=O)O)c(NC(=O)c2ccccc2)c1	> 48.7
O=C(CSc1nccc(-c2cccs2)n1)Nc1ccccc1	2.3 (≈ 7.02 µM)
CC(Sc1ncnc2sc(-c3ccccc3)cc12)C(N)=O (stereo not given)	0.8 (≈ 2.54 µM)
Cc1ccc(OCC(=O)NCCCNC(=O)c2ccccn2)cc1	> 49.1
CC1CCN(C(=O)c2ccc(CNS(=O)(=O)c3ccc(C(C)(C)C)cc3)cc2)CC1	8.3 (≈ 19.4 µM)
O=C(NCc1cccnc1)Nc1cccc(C(F)(F)F)c1	> 44.3
Brc1cnc2ccccc2c1N1CCCCC1	1.2 (≈ 4.12 µM)
CCOC(=O)c1c(C)[nH]c(C)c1C(=O)COC(=O)c1ccc(Cl)nc1	> 54.7
COc1ccc(N2C(=O)CC(C)(C)CC2=O)cc1OC	> 41.6
O=C1c2ccccc2C(O)N1c1ccccc1 (stereo not given)	> 33.8
Cc1cc(NC(=O)c2cccs2)ncc1NC(=O)C(C)(C)C	38.6 (≈ 122 µM)
Cc1ccc(C(=O)NCc2ccc3c(c2)OCO3)c(C)c1	11.1 (≈ 39.2 µM)
O=C(Cc1cccs1)Nc1ccc(F)cc1	> 35.3
COc1ccc(C(=O)Nc2ccc(NC(=O)C3CCCCC3)nc2)cc1	0.4 (≈ 1.13 µM)
O=C(CN1CCN(c2ccccc2)CC1)Nc1ccc(F)cc1	> 47
O=C1NC(=O)N(c2ccc(F)cc2)C(=O)/C1=C/c1ccsc1	> 47.4
COc1ccc(C(=O)CSc2cc(C)[nH]c(=O)n2)cc1	23.7 (≈ 81.6 µM)
N#CC1(NC(=O)COC(=O)CN2C(=O)c3ccccc3C2=O)CCCCC1	> 55.4
COC(=O)c1ccc(CN(C)S(=O)(=O)c2cccs2)cc1	2.6 (≈ 7.99 µM)
O=C(COc1ccccc1)NCC(=O)NC1CCCCC1	> 43.6
Cc1cc2oc(C(=O)Nc3nonc3C)c(C)c2cc1Cl	< 0.2
CC(NC(=O)/C(C#N)=C/c1ccc(OCC(=O)O)cc1)c1ccccc1 (stereo not given)	50.8 (≈ 145 µM)

Structure (SMILES)	solubility kinetic [µg/mL]
COc1ccccc1OCCNC(=O)C1CCCCC1	33.8 (≈ 122 µM)
O=C(NCCO)c1cc([N+](=O)[O-])cc2c1C=Cc1ccccc1O2	35.3 (≈ 108 µM)
c1ccc2c(c1)OCC(CNCC1COc3ccccc3O1)O2 (stereo not given)	> 47
O=C(CNC(=O)c1ccc(Br)cc1)c1ccccc1	1.3 (≈ 4.09 µM)
COC(=O)c1ccc(Nc2ccc3nonc3c2[N+](=O)[O-])cc1	< 0.2
O=C(OCc1cc(Cl)cc2c1OCOC2)c1cccnc1Cl	8.5 (≈ 25 µM)
Cc1ccc(CNC(=S)N2CCOCC2)cc1	> 37.6
O=C(c1cc(F)c(F)c(F)c1F)N1CCN(C(=O)C2CCCO2)CC1 (stereo not given)	> 54
N#C/C(=N\O)c1nc2ccccc2s1	> 30.5
COc1cccc2c1O/C(=N\O)C(C(=O)Nc1ccc(C)cc1)C2 (stereo not given)	45.7 (≈ 140 µM)
COc1cc(C(=O)OC2CCOC2=O)c([N+](=O)[O-])cc1OC (stereo not given)	> 46.7
O=C(NCCc1ccc(Cl)cc1)c1ccc(=O)[nH]c1	38.1 (≈ 138 µM)
Cc1cc(NC(=O)COC(=O)CNS(=O)(=O)c2c(F)cc(F)cc2Br)no1	> 70.2
CC(=O)NC(Cc1c[nH]c2ccccc12)C(=O)NCc1ccco1 (stereo not given)	> 48.8
CC1C(=O)Nc2ccccc2N1C(=O)c1cccc(C(F)(F)F)c1 (stereo not given)	> 50.1
COc1cc(OC)nc(Oc2cc(C=O)ccc2OC)n1	> 43.5
CC(C)Oc1ccccc1NC(=O)CSc1nccn1C	> 45.8
Cc1cc(C)cc(C(=O)N2CCN(Cc3ccc4c(c3)OCO4)CC2)c1	> 52.9
O=C(NCCCc1ccccc1)c1cncc(Br)c1	47.9 (≈ 150 µM)
NC(CS(=O)O)C(=O)O (stereo not given)	> 23
O=C(Nc1cccc(O)c1)c1cc(-c2ccccc2Cl)on1	0.8 (≈ 2.54 µM)
O=C(NCCc1ccccc1)C1(S(=O)(=O)c2ccc(Cl)cc2)CC1	33.9 (≈ 93.2 µM)
O=C(O)c1ccccc1NC(=O)c1ccccc1-c1ccccc1C(=O)O	> 54.2
Clc1ccccc1C1Nc2cccc3cccc(c23)N1	7.5 (≈ 26.7 µM)
